Measurements as given in US5994384A, “Pharmaceutical compositions of levo-enantiomers of medetomidine derivatives and their use” (Orion Corporation, priority 1995, dated 1999).

Legend:
[1] = molecular target: T1, adrenergic α-2 receptors (Homo sapiens, UniProt P08913); conditions: HEL cells; for antagonism of receptor activation to UK 14,304 by prior administration: intracellular Ca2+, 10 μM UK 14,304, 10 μM I-medetomidine, 1 μM rauwolscine
T1 sequence (P08913 1-465): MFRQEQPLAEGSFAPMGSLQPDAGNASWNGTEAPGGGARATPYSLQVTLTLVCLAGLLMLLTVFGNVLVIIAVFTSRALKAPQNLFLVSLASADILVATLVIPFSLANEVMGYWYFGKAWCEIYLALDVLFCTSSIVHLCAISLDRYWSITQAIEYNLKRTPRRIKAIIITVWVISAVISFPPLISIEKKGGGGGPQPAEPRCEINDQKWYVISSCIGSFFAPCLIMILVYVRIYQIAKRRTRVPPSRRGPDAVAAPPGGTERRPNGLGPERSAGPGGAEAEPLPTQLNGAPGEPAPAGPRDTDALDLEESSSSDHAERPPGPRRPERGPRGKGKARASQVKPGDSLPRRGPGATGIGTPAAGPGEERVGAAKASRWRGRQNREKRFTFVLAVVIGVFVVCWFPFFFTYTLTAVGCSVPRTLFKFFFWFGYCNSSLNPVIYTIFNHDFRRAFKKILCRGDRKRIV
Text: This system was used to screen different adrenergic α-2 receptor agonists for functional purposes.
The cells were loaded with fura-2/AM (Molecular probes, Junction City, USA). […] The dye responses were calibrated by sequential addition of digitonin and EGTA at the end of the experiment to obtain maximal and minimal fluorescence values, respectively.

[2] = molecular target: T1, adrenergic α-2 receptors; test: cell-based; design: This cell line has been used as a model system for studying adrenergic α-2 receptors; endogenous in cells; host or cells: HEL (human erythroleukemia) cells
Description: The intracellular concentration of cAMP was measured by prelabelling the cells with [^3 H]adenine (Amersham, UK) as described by Jansson et al (1985, Eur. J. Pharmacol. […], 165). Separation of [^3 H]ATP and [^3 H]cAMP was achieved by the method of Salomon et al. (1974, Anal. Biochem. 58, 541). Conversion of cell-associated [^3 H]ATP to [^3 H]cAMP was expressed as a percentage of the total radioactivity and normalized to the percentage recovery of [^14 C]cAMP tracer.

increase in the production of cAMP ([2]; hel cells) [fold] | Structure (SMILES) | decrease of the concentration of Ca2+ level ([1]; 10 μM compound) [nM] | antagonism of receptor activation to UK 14,304 by prior administration [1] | activation at 10 µM ([2]; HEL, read-out: further stimulation of forskolin stimulated cAMP production) [%]
 | Cc1cccc([C@@H](C)c2cnc[nH]2)c1C [I-medetomidine, Levomedetomidine] | -17 ± 2 | did not antagonise receptor activation to UK | 42 ± 27
10 | C=C[C@@]1(C)CC(=O)[C@]2(O)[C@@]3(C)[C@@H](O)CCC(C)(C)[C@@H]3[C@H](O)[C@H](OC(C)=O)[C@@]2(C)O1 [forskolin, reference compound] |  |  | 
 | COC(=O)[C@H]1[C@H]2C[C@H]3c4[nH]c5ccccc5c4CCN3C[C@H]2CC[C@@H]1O [rauwolscine, reference compound] |  | did | 
